The target of this assay is T1, LTD4 /E4 receptors (Cavia porcellus, UniProt Q2NNR5).
T1 construct: membrane fractions, containing the LTD4 /E4 receptors, are prepared from guinea-pig lung parenchyma; from tissue; host or cells: guinea-pig lung parenchyma membrane fractions
T1 sequence (Q2NNR5 1-340): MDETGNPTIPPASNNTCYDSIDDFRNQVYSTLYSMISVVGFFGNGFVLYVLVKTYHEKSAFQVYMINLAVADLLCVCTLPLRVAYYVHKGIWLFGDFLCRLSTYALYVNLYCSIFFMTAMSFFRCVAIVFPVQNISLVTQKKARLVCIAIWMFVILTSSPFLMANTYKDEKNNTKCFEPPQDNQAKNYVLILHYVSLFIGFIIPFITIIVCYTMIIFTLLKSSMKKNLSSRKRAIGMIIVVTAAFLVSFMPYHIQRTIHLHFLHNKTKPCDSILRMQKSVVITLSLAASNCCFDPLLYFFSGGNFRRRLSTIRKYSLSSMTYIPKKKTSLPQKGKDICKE
As to the kind of experiment: receptor-ligand binding assay, 3H-LTD4 on guinea-pig lung parenchyma membrane fractions. The conditions noted are these: 1 nM 3H-LTD4, 30 minutes at 22° C.; Ki calculated from IC50 by the Cheng-Prusoff equation. How it is done:
According to this procedure, membrane fractions, containing the LTD4 /E4 receptors, are prepared from guinea-pig lung parenchyma and incubated for 30 minutes at 22° C. with 1 nM ^3 H-LTD4 in the absence or presence of tested antagonist. Specific binding, determined under conditions that prevent enzymatic metabolism of ^3 H-LTD4, is the net result of total ^3 H-LTD4 binding minus nonspecific binding determined in the presence of […] excess unlabelled LTD4. Each assay is done in duplicate and results (Ki values) are typically a mean of several such determinations in individual receptor batches.
The % inhibition by a tested antagonist, relative to control binding (vehicle alone), is expressed as a […] of log[antagonist] concentration (in molar units) and the half-maximal inhibition (IC50) determined by computerized non-linear least-square analysis. The binding constant (Ki) is then calculated from IC50 by the Cheng-Prusoff equation: [formula] where [L] is ^3 H-LTD4 concentration and Kd is the affinity constant of LTD4 to this receptor, determined separately for each batch. (Biochem. Pharmacol. 22: 3099-3108, 1973).

Drawing on patent publication US5041460A, “Heter-aliphatic carboxamides” (ICI Americas Inc., priority 1989, dated 1991), this text covers Ki for one molecule.

As usually defined, the Ki is the dissociation constant of the complex between target and ligand, obtained from inhibition or displacement. In the case of `COc1cc(C(=O)NS(=O)(=O)c2ccccc2C)ccc1Cc1cn(C)c2ccc(CCNC(=O)N(C)C)cc12` [Example 4, 4-[5-[2-(N',N'-Dimethylureido)ethyl]-1-methylindol-3-ylmethyl]-3-methoxy-N-(2-methylphenylsulfonyl)benzamide], the Ki was 1 nM.
